As usually defined, the IC50 is the concentration that inhibits the measured activity by half.

Bridge positions count the residues as written; N and C are the ends. Square brackets hold non-standard residues; d marks the D form. Peptide text beside a SMILES is read from it. * marks the point of attachment. Phe(4-COOH) = N[C@@H](Cc1ccc(C(=O)O)cc1)C(=O)O; Bip = N[C@@H](Cc1ccc(-c2ccccc2)cc1)C(=O)O; Phe(3-Me) = Cc1cccc(C[C@H](N)C(=O)O)c1; 4Pal = N[C@@H](Cc1ccncc1)C(=O)O; Cha = N[C@@H](CC1CCCCC1)C(=O)O; Carboxymethyl = O=C(O)C*; Orn = NCCC[C@H](N)C(=O)O; Pra = C#CC[C@H](N)C(=O)O; Aun = NCCCCCCCCCCC(=O)O; Dab = NCC[C@H](N)C(=O)O; Dap = NC[C@H](N)C(=O)O; AEEA = NCCOCCOCC(=O)O

T1 sequence (Q15116 25-288): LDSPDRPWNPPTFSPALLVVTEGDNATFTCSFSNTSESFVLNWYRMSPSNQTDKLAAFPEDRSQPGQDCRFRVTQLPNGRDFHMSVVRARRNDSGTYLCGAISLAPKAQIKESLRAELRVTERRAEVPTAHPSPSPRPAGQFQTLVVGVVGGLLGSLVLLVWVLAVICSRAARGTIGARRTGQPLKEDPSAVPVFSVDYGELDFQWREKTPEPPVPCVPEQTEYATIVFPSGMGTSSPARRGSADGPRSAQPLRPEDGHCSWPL

The assay concerns the target T1, PD-1/PD-L1 interaction (PE-labeled human PD-L1-Ig binding to Jurkat cell line over-expressing human PD-1) (Homo sapiens, UniProt Q15116).
T1 construct: expressed in transfected cells; host or cells: Jurkat
Nature of the assay: Jurkat-PD-1 Cell Binding High-Content Screening Assay (CBA). Particulars: Jurkat cell line over-expressing human PD-1; PE-labeled PD-L1-Ig 20 nM final; read-out: Jurkat hPD1-PDL1 IC50. It is filed as cell-based. The essentials:
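Human PD-L1-Ig carrying a covalent PE label on its Ig tag serves as the probe, applied at 20 nM final to compound-treated (2 h, 37° C) Jurkat-hPD-1 cells in medium with 10% fetal calf serum. After one hour, fixation and nuclear staining precede high-content image analysis.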
With `CC[C@H](C)[C@@H]1NC(=O)[C@H](Cc2ccc(-c3ccccc3)cc2)NC(=O)[C@H](C(C)C)NC(=O)[C@H](Cc2cccc(C)c2)NC(=O)[C@H](CC(=O)O)NC(=O)[C@H](Cc2ccc(C(=O)O)cc2)NC(=O)[C@H](Cc2ccncc2)NC(=O)CSC[C@@H](C(=O)N[C@@H](CCCN)C(=O)NCCCCCCCCCCC(=O)O)NC(=O)[C@H]([C@@H](C)O)NC(=O)[C@H](C(C)C)NC(=O)[C@H](CC2CCCCC2)NC(=O)[C@H](CCN)NC(=O)[C@@H](CC(C)C)NC(=O)[C@H](CCCN)NC1=O` [Compound 1184], the IC50 was 0.0515 µM. Turning to `CC[C@H](C)[C@@H]1NC(=O)[C@H](Cc2ccc(-c3ccccc3)cc2)NC(=O)[C@H](C(C)C)NC(=O)[C@H](Cc2cccc(C)c2)NC(=O)[C@H](CC(=O)O)NC(=O)[C@H](Cc2ccc(C(=O)O)cc2)NC(=O)[C@H](Cc2ccncc2)NC(=O)CSC[C@@H](C(=O)N[C@@H](CCCCN)C(=O)NCCCCCCCCCCC(=O)O)NC(=O)[C@H]([C@@H](C)O)NC(=O)[C@H](C(C)C)NC(=O)[C@H](CC2CCCCC2)NC(=O)[C@H](CCN)NC(=O)[C@@H](CC(C)C)NC(=O)[C@H](CCCN)NC1=O` [Compound 1185], the IC50 amounted to 0.0442 µM. For `CC[C@H](C)[C@@H]1NC(=O)[C@H](Cc2ccc(-c3ccccc3)cc2)NC(=O)[C@H](C(C)C)NC(=O)[C@H](Cc2cccc(C)c2)NC(=O)[C@H](CC(=O)O)NC(=O)[C@H](Cc2ccc(C(=O)O)cc2)NC(=O)[C@H](Cc2ccncc2)NC(=O)CSC[C@@H](C(=O)N[C@@H](CCCNC(=N)N)C(=O)NCCCCCCCCCCC(=O)O)NC(=O)[C@H]([C@@H](C)O)NC(=O)[C@H](C(C)C)NC(=O)[C@H](CC2CCCCC2)NC(=O)[C@H](CCN)NC(=O)[C@@H](CC(C)C)NC(=O)[C@H](CCCN)NC1=O` [Compound 1186], the IC50 was 0.103 µM. With `CC[C@H](C)[C@@H]1NC(=O)[C@H](Cc2ccc(-c3ccccc3)cc2)NC(=O)[C@H](C(C)C)NC(=O)[C@H](Cc2cccc(C)c2)NC(=O)[C@H](CC(=O)O)NC(=O)[C@H](Cc2ccc(C(=O)O)cc2)NC(=O)[C@H](Cc2ccncc2)NC(=O)CSC[C@@H](C(=O)N[C@@H](Cc2cnc[nH]2)C(=O)NCCCCCCCCCCC(=O)O)NC(=O)[C@H]([C@@H](C)O)NC(=O)[C@H](C(C)C)NC(=O)[C@H](CC2CCCCC2)NC(=O)[C@H](CCN)NC(=O)[C@@H](CC(C)C)NC(=O)[C@H](CCCN)NC1=O` [Compound 1187] the figure was 0.0628 µM; with `CC[C@H](C)[C@@H]1NC(=O)[C@H](Cc2ccc(-c3ccccc3)cc2)NC(=O)[C@H](C(C)C)NC(=O)[C@H](Cc2cccc(C)c2)NC(=O)[C@H](CC(=O)O)NC(=O)[C@H](Cc2ccc(C(=O)O)cc2)NC(=O)[C@H](Cc2ccncc2)NC(=O)CSC[C@@H](C(=O)NCCOCCOCC(=O)N[C@@H](CN)C(=O)NCCCCCCCCCCC(=O)O)NC(=O)[C@H]([C@@H](C)O)NC(=O)[C@H](C(C)C)NC(=O)[C@H](CC2CCCCC2)NC(=O)[C@H](CCN)NC(=O)[C@@H](CC(C)C)NC(=O)[C@H](CCCN)NC1=O` [Compound 1188] ({CH2CO}-[4Pal][Phe(4-COOH)]D[Phe(3-Me)]V[Bip]I[Orn][dL][Dab][Cha]VTC[AEEA][Dap][Aun]-OH; thioether N-14), 0.148 µM; with `CC[C@H](C)[C@@H]1NC(=O)[C@H](Cc2ccc(-c3ccccc3)cc2)NC(=O)[C@H](C(C)C)NC(=O)[C@H](Cc2cccc(C)c2)NC(=O)[C@H](CC(=O)O)NC(=O)[C@H](Cc2ccc(C(=O)O)cc2)NC(=O)[C@H](Cc2ccncc2)NC(=O)CSC[C@@H](C(=O)NCCOCCOCC(=O)N[C@@H](CCN)C(=O)NCCCCCCCCCCC(=O)O)NC(=O)[C@H]([C@@H](C)O)NC(=O)[C@H](C(C)C)NC(=O)[C@H](CC2CCCCC2)NC(=O)[C@H](CCN)NC(=O)[C@@H](CC(C)C)NC(=O)[C@H](CCCN)NC1=O` [Compound 1189] ({CH2CO}-[4Pal][Phe(4-COOH)]D[Phe(3-Me)]V[Bip]I[Orn][dL][Dab][Cha]VTC[AEEA][Dab][Aun]-OH; thioether N-14), 0.0236 µM. With `CC[C@H](C)[C@@H]1NC(=O)[C@H](Cc2ccc(-c3ccccc3)cc2)NC(=O)[C@H](C(C)C)NC(=O)[C@H](Cc2cccc(C)c2)NC(=O)[C@H](CC(=O)O)NC(=O)[C@H](Cc2ccc(C(=O)O)cc2)NC(=O)[C@H](Cc2ccncc2)NC(=O)CSC[C@@H](C(=O)NCCOCCOCC(=O)N[C@@H](CCCN)C(=O)NCCCCCCCCCCC(=O)O)NC(=O)[C@H]([C@@H](C)O)NC(=O)[C@H](C(C)C)NC(=O)[C@H](CC2CCCCC2)NC(=O)[C@H](CCN)NC(=O)[C@@H](CC(C)C)NC(=O)[C@H](CCCN)NC1=O` [Compound 1190] ({CH2CO}-[4Pal][Phe(4-COOH)]D[Phe(3-Me)]V[Bip]I[Orn][dL][Dab][Cha]VTC[AEEA][Orn][Aun]-OH; thioether N-14) the figure was 0.0248 µM. With `CC[C@H](C)[C@@H]1NC(=O)[C@H](Cc2ccc(-c3ccccc3)cc2)NC(=O)[C@H](C(C)C)NC(=O)[C@H](Cc2cccc(C)c2)NC(=O)[C@H](CC(=O)O)NC(=O)[C@H](Cc2ccc(C(=O)O)cc2)NC(=O)[C@H](Cc2ccncc2)NC(=O)CSC[C@@H](C(=O)NCCOCCOCC(=O)N[C@@H](CCCCN)C(=O)NCCCCCCCCCCC(=O)O)NC(=O)[C@H]([C@@H](C)O)NC(=O)[C@H](C(C)C)NC(=O)[C@H](CC2CCCCC2)NC(=O)[C@H](CCN)NC(=O)[C@@H](CC(C)C)NC(=O)[C@H](CCCN)NC1=O` [Compound 1191] ({CH2CO}-[4Pal][Phe(4-COOH)]D[Phe(3-Me)]V[Bip]I[Orn][dL][Dab][Cha]VTC[AEEA]K[Aun]-OH; thioether N-14) the figure was 0.0197 µM. Take `CC[C@H](C)[C@@H]1NC(=O)[C@H](Cc2ccc(-c3ccccc3)cc2)NC(=O)[C@H](C(C)C)NC(=O)[C@H](Cc2cccc(C)c2)NC(=O)[C@H](CC(=O)O)NC(=O)[C@H](Cc2ccc(C(=O)O)cc2)NC(=O)[C@H](Cc2ccncc2)NC(=O)CSC[C@@H](C(=O)NCCOCCOCC(=O)N[C@@H](CCCNC(=N)N)C(=O)NCCCCCCCCCCC(=O)O)NC(=O)[C@H]([C@@H](C)O)NC(=O)[C@H](C(C)C)NC(=O)[C@H](CC2CCCCC2)NC(=O)[C@H](CCN)NC(=O)[C@@H](CC(C)C)NC(=O)[C@H](CCCN)NC1=O` [Compound 1192] ({CH2CO}-[4Pal][Phe(4-COOH)]D[Phe(3-Me)]V[Bip]I[Orn][dL][Dab][Cha]VTC[AEEA]R[Aun]-OH; thioether N-14): the IC50 is 0.0455 µM. With `C#CC[C@H](NC(=O)COCCOCCNC(=O)[C@H](CCN)NC(=O)[C@@H]1CSCC(=O)N[C@@H](Cc2ccncc2)C(=O)N[C@@H](Cc2ccc(OCC(=O)O)cc2)C(=O)N[C@@H](CC(=O)O)C(=O)N[C@@H](Cc2c[nH]c3ccccc23)C(=O)N[C@@H](C(C)C)C(=O)N[C@@H](Cc2ccc(-c3ccccc3)cc2)C(=O)N[C@@H]([C@@H](C)CC)C(=O)N[C@@H](CCCN)C(=O)N[C@H](CC(C)C)C(=O)N[C@@H](CCN)C(=O)N[C@@H](CC(C)C)C(=O)N[C@@H](C(C)C)C(=O)N[C@@H]([C@@H](C)O)C(=O)N1)C(=O)N[C@@H](CN)C(=O)NCCCCCCCCCCC(=O)O` [Compound 1193] ({CH2CO}-[4Pal]Y(Carboxymethyl)DWV[Bip]I[Orn][dL][Dab]LVTC[Dab][AEEA][Pra][Dap][Aun]-OH; thioether N-14) the figure was 0.0103 µM; with `C#CC[C@H](NC(=O)COCCOCCNC(=O)[C@H](CCN)NC(=O)[C@@H]1CSCC(=O)N[C@@H](Cc2ccncc2)C(=O)N[C@@H](Cc2ccc(OCC(=O)O)cc2)C(=O)N[C@@H](CC(=O)O)C(=O)N[C@@H](Cc2c[nH]c3ccccc23)C(=O)N[C@@H](C(C)C)C(=O)N[C@@H](Cc2ccc(-c3ccccc3)cc2)C(=O)N[C@@H]([C@@H](C)CC)C(=O)N[C@@H](CCCN)C(=O)N[C@H](CC(C)C)C(=O)N[C@@H](CCN)C(=O)N[C@@H](CC(C)C)C(=O)N[C@@H](C(C)C)C(=O)N[C@@H]([C@@H](C)O)C(=O)N1)C(=O)N[C@@H](CCN)C(=O)NCCCCCCCCCCC(=O)O` [Compound 1194] ({CH2CO}-[4Pal]Y(Carboxymethyl)DWV[Bip]I[Orn][dL][Dab]LVTC[Dab][AEEA][Pra][Dab][Aun]-OH; thioether N-14), 0.0148 µM.

Take `C#CC[C@H](NC(=O)COCCOCCNC(=O)[C@H](CCN)NC(=O)[C@@H]1CSCC(=O)N[C@@H](Cc2ccncc2)C(=O)N[C@@H](Cc2ccc(OCC(=O)O)cc2)C(=O)N[C@@H](CC(=O)O)C(=O)N[C@@H](Cc2c[nH]c3ccccc23)C(=O)N[C@@H](C(C)C)C(=O)N[C@@H](Cc2ccc(-c3ccccc3)cc2)C(=O)N[C@@H]([C@@H](C)CC)C(=O)N[C@@H](CCCN)C(=O)N[C@H](CC(C)C)C(=O)N[C@@H](CCN)C(=O)N[C@@H](CC(C)C)C(=O)N[C@@H](C(C)C)C(=O)N[C@@H]([C@@H](C)O)C(=O)N1)C(=O)N[C@@H](CCCN)C(=O)NCCCCCCCCCCC(=O)O` [Compound 1195] ({CH2CO}-[4Pal]Y(Carboxymethyl)DWV[Bip]I[Orn][dL][Dab]LVTC[Dab][AEEA][Pra][Orn][Aun]-OH; thioether N-14): the IC50 is 0.0137 µM.

For the compound `C#CC[C@H](NC(=O)COCCOCCNC(=O)[C@H](CCN)NC(=O)[C@@H]1CSCC(=O)N[C@@H](Cc2ccncc2)C(=O)N[C@@H](Cc2ccc(OCC(=O)O)cc2)C(=O)N[C@@H](CC(=O)O)C(=O)N[C@@H](Cc2c[nH]c3ccccc23)C(=O)N[C@@H](C(C)C)C(=O)N[C@@H](Cc2ccc(-c3ccccc3)cc2)C(=O)N[C@@H]([C@@H](C)CC)C(=O)N[C@@H](CCCN)C(=O)N[C@H](CC(C)C)C(=O)N[C@@H](CCN)C(=O)N[C@@H](CC(C)C)C(=O)N[C@@H](C(C)C)C(=O)N[C@@H]([C@@H](C)O)C(=O)N1)C(=O)N[C@@H](CCCCN)C(=O)NCCCCCCCCCCC(=O)O` [Compound 1196] ({CH2CO}-[4Pal]Y(Carboxymethyl)DWV[Bip]I[Orn][dL][Dab]LVTC[Dab][AEEA][Pra]K[Aun]-OH; thioether N-14), the IC50 was found to be 0.0096 µM.

The values are drawn from US20260022142A1, “MACROCYCLIC IMMUNOMODULATORS” (Bristol-Myers Squibb Company, priority 2022, published 2026).
